Measurements published in patent US4916220A, “Palmitoyl-fructose-1,6-diphosphate, its therapeutic use and relevant preparation methods” (Biomedica Foscama Industria Chimico-Farmaceutica, priority 1988, dated 1990).
Read-outs that look alike come from different tables or passages of the source.

How the values were obtained:
[1] = tested on: small slices of rat heart; assay: Attack of ^14C-FDP and ^14C-DPF to small slices of rat heart; format: cell-based; conditions: for Attack to small slices of rat heart: 5 mM, 40 min incubation at 25° C., 3 tests average
Source text: Small slices of rat heart were used to study comparatively the attack of ^14 C-FDP and ^14 C-DPF, the latter obtained by palmitoylation of a mixture of "hot" and "cold" FDP.

[2] = tested on: entrance of ^45Ca in small slices of heart; assay: Effect on the entrance of ^45Ca in small slices of heart; format: cell-based; conditions: 3 min. at 25° C., 0.5 mM Ca; for effect on the entrance of ^45Ca: result in words
Description: The effect on the entrance of ^45 Ca in small slices of heart incubated for 3 min. at 25° C. with 0.5 mM Ca is inhibitory both with FDP and with DPF and therefore both seem to protect the tissue from the anoxy occurring with the entrance of Ca.

perfused rat heart = assay: Action on perfused rat heart (inotropic and chronotropic); format: cell-based; conditions: for EC50: biphasic inotropic and chronotropic effect, read-out: ED50 (perfused rat heart); for action on perfused heart (inotropic and chronotropic): result in words, final concentration
[3] = tested on: organs (heart, kidneys, liver); assay: Radioactivity accumulated in organs after administration per os to rats; format: in vivo, rat; conditions: 3,000,000 dpm total, 1 hour after administration
Description: The administration to rats of ^14 C-FDP and ^14 C-DPF per os (3,000,000 dpm total) allowed measurement of the radioactivity accumulated 1 hour after administration at the level of the organs and the results are reported in Table 2.

| IC50 ([2]; 0.05 h) | EC50 (perfused rat heart; Rattus norvegicus) | Molecule | Attack to small slices of rat heart [1] | effect on the entrance of ^45Ca [2] | action on perfused heart (inotropic and chronotropic) (perfused rat heart) | Accumulation of radioactivity, Heart [3] | Accumulation of radioactivity, Kidneys [3] | Accumulation of radioactivity, Liver [3] | membrane affinity higher than that of FDP ([1]; relative to FDP) | IC50 [2] | EC50 (perfused rat heart) |
| --- | --- | --- | --- | --- | --- | --- | --- | --- | --- | --- | --- |
| 8000 µM | 100 µM | O=C(COP(=O)(O)O)[C@@H](O)[C@H](O)[C@H](O)COP(=O)(O)O [FDP, fructose-1,6-diphosphate] | 260 ± 20 nmoles/100 mg | inhibitory | biphasic, i.e. inotropic and chronotropic, positive at concentrations lower than 1 mM (final) and negative for higher concentrations | 508 | 395 | 624 |  |  |  |
|  |  | palmitoyl-fructose-1,6-diphosphate [DPF] | 344 ± 16 nmoles/100 mg | inhibitory | biphasic effect but its effect appears at lower doses | 1620 | 1324 | 1434 | 30% | 5500 µM | 40 µM |
